Reference: patent publication US5498695A, “Paranitroaniline peptides” (Pfizer Inc., priority 1994, dated 1996)
pKi: −log10 of the molar value. Where a SMILES comes first, the peptide text is derived from it. Where no end group is shown, it is not given here. The star is where a group is joined. pNA = O=[N+]([O-])c1ccc(N*)cc1; Cbz = O=C(OCc1ccccc1)*; Boc = CC(C)(C)OC(=O)*

What was measured:
[1] = target: T1, interleukin 1β converting enzyme (ICE) (Homo sapiens, UniProt P29466); assay: Spectrophotometric hydrolysis of pNA substrates by immobilized ICE (release of pNA at 405 nM); format: biochemical; conditions: 25° C.; for Increase In Absorbence Rates (mOD/min), first value: first of two rate values printed; for Increase In Absorbence Rates (mOD/min), first value / Increase In Absorbence Rates (mOD/min), second value: pH 7, 405 nM, condition that separates the two values not given; for Vmax (Rates) mOD/min: pNA substrate 0.01 to 1.5 mM, pH 7; for Increase In Absorbence Rates (mOD/min), second value: second of two rate values
T1 construct: ICE activity was purified from THP-1 cell lysates by three chromatographic steps; endogenous in cells; host or cells: THP-1 (ATCC-TIB 202) human monocyte cell line; Lysate was purified over G25, Q-Sepharose and MonoQ, then captured on protein A agarose beads carrying anti-ICE antibody
T1 sequence (P29466 120-297 limits assumed): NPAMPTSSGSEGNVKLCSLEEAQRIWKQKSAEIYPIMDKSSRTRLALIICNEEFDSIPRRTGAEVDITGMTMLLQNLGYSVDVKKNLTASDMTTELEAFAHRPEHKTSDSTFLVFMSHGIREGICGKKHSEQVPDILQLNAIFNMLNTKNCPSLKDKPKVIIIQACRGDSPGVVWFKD
T1 sequence (P29466 317-404 limits assumed): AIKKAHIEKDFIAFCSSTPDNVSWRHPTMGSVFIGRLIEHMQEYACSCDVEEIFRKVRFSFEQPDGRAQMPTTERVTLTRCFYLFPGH
Method: (§1) Other procedures for purification and assaying ICE are disclosed in Black et al., FEBS Letters, 247, 386-390 (1989), and Thornberry et al., Nature, 356, 768-774 (1992). Cell Culture And Lysates.
(§2) Human monocyte cell line, THP-1 (ATCC-TIB 202) was grown in RPMI media 1640 (Gibco BRL Gaithersburg, Md. 20877) with 10% fetal bovine serum, harvested by centrifugation, washed twice in Dulbecco's PBS […] without Ca^++, and resuspended in 10 mM Tris-HCl pH 8 buffer containing 5 mM DTT (dithiothreitol), 1 mM EDTA (ethylene diamine tetraacetic acid), 1 mM PMSF (phenylmethyl sulfonylfluoride), 1 μg/ml pepstatin, and 1 μg/ml leupeptin at 1-3×10^8 cells per ml. Cells were frozen at -70° C. until use and then lysed by thawing. Lysates were cleared by centrifugation at 20,000× g for 1 hour followed by 120,000×g for 1 hour.
(§3) ICE activity was purified from THP-1 cell lysates by three chromatographic steps: (A) Thp-1 cell lysate (1.5L) was desalted by G25 column chromatography (Pharmacia LKB Biotechnology) (B) The protein fraction was then subjected to ion-exchange chromatography on Q-Sepharose Fast Flow (Pharmacia LKB Biotechnology) in buffer A (20 mM Tris pH 7.8 containing 5 mM EDTA, 1 mM PMSF, 1 μg/ml pepstatin, and 1 μg/ml leupeptin). ICE activity was eluted with a gradient of NaCl in buffer A. (C) The active fractions from B were desalted, concentrated and subjected to MonoQ (trademark) (Pharmacia LKB Biotechnology) column chromatography. ICE activity was then eluted in a NaCl gradient. Active ICE fractions from C were pooled and used to bind immunoaffinity beads containing covalently linked antibodies raised against the first […] N-terminal residues of ICE (NH2 -Asp-Pro-Ala-Met-Pro-Thr-Ser-Ser-Val-Lys-Leu-Cys(SEQ ID NO:2)-CONH2).
Immobilization of ICE to immunoaffinity beads was done following standard protocols. Briefly, IgG fractions were covalently linked to protein A beads as described by the manufacturers (Antibody Orientation Kit Protein A Agarose supplied by Affinica (trademark) (Product manufactured by Schleicher and Schuell)). Protein A beads were pelleted by centrifugation and washed with 5 times their volume with Affinica (trademark) supplied "binding buffer". IgG, appropriately diluted in "binding buffer," was then bound to the beads. The beads were then washed and the bound IgG was covalently linked with dimethyl suberimidate. After the reaction was stopped with the "quenching buffer" supplied by Affinica (trademark), the immunoaffinity beads were washed and stored in PBS buffer containing 0.02% NAN3. To bind the immunoaffinity beads with MonoQ purified ICE preparations, the beads were washed in 10 mM Tris HCL buffer pH 7.8 containing 5 mM DDT, 1 mM EDTA-NA, 1 ug/ml peptstatin, 1 ug/ml leupeptin and 10% glycerol ("washing buffer"). After the wash, the beads were mixed with ICE in the presence of 10% DMSO final concentration. The suspension was rotated slowly for 1 hour at room temperature. Subsequently, the beads were thoroughly washed with the "washing buffer" before they were used and resuspended in an equal volume of this buffer in the enzymatic assay.
The enzymatic reaction was carried out at 25° C. in 96 microtiter wells (100 μl final volume) with active enzyme immobilized to anti-ICE antibodies covalently linked to protein A beads as described above. The incubation mixtures for the enzymatic assays contained 0.01 to 1.5 mM of the pNA substrates and was made up in 8.35 mM MES, 4.17 mM Tris, 4.17 mM acetic acid, […] DMSO, 0.8 mM EDTA and 4.17 mM DTT (final concentrations)adjusted to a final pH of 7.
The enzymatic reaction was monitored spectrophotometrically at […]. The increase in absorbance at this wave length resulted from the release of pNA chromophore after hydrolysis by ICE of the peptidic-pNA substrate. The release of the chormophore was linear with reaction time and the rates observed were proportional to ICE and substrate concentration. […]

[2] = target: T1, interleukin 1β converting enzyme (ICE); assay: Inhibition of ICE hydrolysis of CBZ-Val-Ala-Asp-pNA; format: biochemical; conditions: for pKi: substrate CBZ-Val-Ala-Asp-pNA
Method: as §1, §2, §3
Immobilization of ICE to immunoaffinity beads was done following standard protocols. […]
The enzymatic reaction was monitored spectrophotometrically at […]. The increase in absorbance at this wave length resulted from the release of pNA chromophore after hydrolysis by ICE of the peptidic-pNA substrate. […]

Molecule: CC(=O)N[C@H](C(=O)N[C@@H](C)C(=O)N[C@@H](CC(=O)O)C(=O)Nc1ccc([N+](=O)[O-])cc1)C(C)C [Example 5, AcValAlaAsp-p-nitroanilide] (Ac-Val-Ala-Asp-pNA)
- Increase In Absorbence Rates (mOD/min), first value [1]: 0.15 mOD/min
- Vmax (Rates) mOD/min [1]: 0.25 mOD/min
- Increase In Absorbence Rates (mOD/min), second value [1]: 0.08 mOD/min

Molecule: H-NEAYVHDAPVRSLN [p70, H-Asn-Glu-Ala-Tyr-Val-His-Asp-Ala-Pro-Val-Arg-Ser-Leu-Asn]
- pKi [2]: 3.34

Molecule: Ac-YVHDA-NH2 [p48, Ac-Tyr-Val-His-Asp-Ala(SEQ ID NO:4)-NH2]
- type of inhibition ([2]; hydrolysis of CBZ-Val-Ala-Asp-pNA, affecting Km but not Vmax): competitive inhibitors
- pKi [2]: 2.80

Molecule: CC(=O)N[C@@H](Cc1ccc(O)cc1)C(=O)N[C@H](C(=O)N[C@@H](C)C(=O)N[C@@H](CC(=O)O)C(=O)Nc1ccc([N+](=O)[O-])cc1)C(C)C [Example 1, Ac-TyrValAlaAsp (SEQ ID NO:1)-p-nitroanilide]
- Increase In Absorbence Rates (mOD/min), first value [1]: 0.21 mOD/min
- Vmax (Rates) mOD/min [1]: 0.27 mOD/min
- Increase In Absorbence Rates (mOD/min), second value [1]: 0.17 mOD/min

Molecule: CC(C)[C@H](NC(=O)OC(C)(C)C)C(=O)N[C@@H](C)C(=O)N[C@@H](CC(=O)O)C(=O)Nc1ccc([N+](=O)[O-])cc1 [Example 4, t-BOCValAlaAsp-p-nitroanilide] (Boc-Val-Ala-Asp-pNA)
- Increase In Absorbence Rates (mOD/min), first value [1]: 0.17 mOD/min
- Vmax (Rates) mOD/min [1]: 0.24 mOD/min
- Increase In Absorbence Rates (mOD/min), second value [1]: 0.10 mOD/min

Molecule: CC(C)[C@H](NC(=O)OCc1ccccc1)C(=O)N[C@@H](C)C(=O)N[C@@H](CC(=O)O)C(=O)Nc1ccc([N+](=O)[O-])cc1 [Example 6, CBZValAlaAsp-p-nitroanilide] (Cbz-Val-Ala-Asp-pNA)
- Increase In Absorbence Rates (mOD/min), first value [1]: 0.18 mOD/min
- Vmax (Rates) mOD/min [1]: 0.21 mOD/min
- Increase In Absorbence Rates (mOD/min), second value [1]: 0.16 mOD/min
